Data: patent publication US20140011889A1, “Resveratrol-Containing Compositions and Methods of Use for Cardiac-Related Diseases” (Resveratrol Partners, LLC, priority 2010, published 2014)

Tests used:
reactive oxygen species = experiment: Intracellular ROS by CM-H2DCFDA fluorescence in I/R heart; format: in vivo, rat; details: IR heart, FIG. 19
Experimental: The dye was injected intravenously, prior to induction of ischemia/reperfusion, and at the end of the experiments, the level of fluorescence was determined for the generation of ROS by measuring the fluorescent oxidation product CM-DCF in the cytosol, at an excitation wavelength of 480 nm and an emission wavelength of 520 nm.

[1] = tested on: isolated perfused rat hearts; experiment: Isolated working rat heart, ischemia/reperfusion, cardiac function (Example 6); format: in vivo, Sprague-Dawley rats
Experimental: Isolated working heart preparation. After completing the feeding protocol, the animals were anesthetized with sodium pentobarbital (80 mg/kg, intraperitoneally) (Abbott Laboratories, North Chicago, Ill., USA), and heparin sodium (500 U/kg, intravenously) (Elkins-Sinn Inc., Cherry Hill, N.J., USA) was used as an anticoagulant. After deep anesthesia, the hearts were excised, the aorta was cannulated, and the hearts were perfused through the aorta in Langendorff mode at a constant (100 cm of water) perfusion pressure at 37° C. with Krebs-Henseleit bicarbonate for a 5 min washout period as described previously. Ray et al. (1999) Free Rad Biol Med 27:160-9.
During the washout period, the left atrium was cannulated, and the Langendorff preparation was switched to the working mode for 10 min with a left atrial filling pressure of 17 cm H2O; the aortic afterload pressure was set to 100 cm of water. At the end of 10 min, the baseline cardiac function such as heart rate (HR, beats/min), aortic flow (AF, ml/min), coronary flow (CF, ml/min), left ventricular developed pressure (LVDP, mmHg) and first derivative of developed pressure (LVdp/dt, mmHg/sec) were recorded. Later, 30 min of global ischemia was initiated by clamping the left atrial inflow and aortic outflow lines at a point close to their origins. After 30 min, reperfusion was initiated for 120 min by unclamping the atrial inflow and aortic outflow lines. The first 10 min of reperfusion was in Langendorff mode to avoid ventricular fibrillation, and then the hearts were switched to an anterograde working mode. Ray et al. (1999) Free Rad Biol Med 27:160-9.
Cardiac function assessment. After 10 min of the working mode, baseline parameters were recorded. To monitor the recovery of the heart, the left ventricular cardiac function was recorded after 60 and 120 min of reperfusion. Six rats were present in each group. […] Coronary flow was measured by timed collection of the coronary effluent dripping from the heart. During the entire experiment, the aortic pressure was monitored using a Gould P23XL pressure transducer (Gould Instrument Systems Inc., Valley View, Ohio, USA) connected to the side arm of the aortic cannula; the signal was amplified using a Gould 6600 series signal conditioner (Gould Instrument Systems Inc.). […] The heart rate, left ventricular developed pressure, and the first derivative of developed pressure were all calculated from the continuously generated pressure signal.
At the end of the 21 days, the animals were sacrificed, their hearts were excised and isolated, and ischemia was induced for 30 min by terminating the coronary flow (as described in the methods section). This was then followed by 2 h of reperfusion in the working mode; during the reperfusion left ventricular function was monitored.

brain tissue = experiment: Gene expression in brain tissue; format: in vivo, mice; details: mouse brain tissue
Source text: Similar effects have been observed in non-heart tissue.

IR rat heart = experiment: Isolated working rat heart I/R: cardiac function, infarct size, apoptosis (Example 7); format: in vivo, Sprague-Dawley rats; details: resveratrol 5 mg/kg/day or Longevinex 100 mg/kg/day, 21 days
Experimental: Methods. Animals. […] Hattori et al., Am. J. Physiol. Heart. Circ. […] Mukherjee et al., Can. J. Pharmol. […] Isolated working heart preparation and assessment of cardiac function. After completing the feeding protocol, the animals were anesthetized with sodium pentobarbital (80 mg/kg, i.p.) (Abbott Laboratories, North Chicago, Ill., USA), and […] heparin sodium (500 IU/kg, i.v.) (Elkins-Sinn Inc., Cherry Hill, N.J., USA) was used as an anticoagulant. […] At the end of 10 min, baseline cardiac function like heart rate (HR, beats/min), aortic flow (AF, ml/min), coronary flow (CF, ml/min), left ventricular developed pressure (LVDP, mmHg) and first derivative of developed pressure (LVdp/dt, mmHg/sec) were recorded. […] Infarct size was measured according to the TTC method. […] To quantitate the areas of infarct in pixels, standard NIH image program was used. The infarct size was quantified and expressed in pixels. […] The fluorescence staining was viewed with a fluorescence microscope (AXIOPLAN2 IMAGING, Carl Zeiss Microimaging Inc., New York) at […] for green fluorescence of fluorescein and at 620 nm for red fluorescence of propidium iodide. The number of apoptotic cells was counted and expressed as a percent of total myocyte population.

For `Oc1ccc(/C=C/c2cc(O)cc(O)c2)cc1` [resveratrol, 3,4′,5-trihydroxy-trans-stilbene], the “intracellular ROS concentration compared to control” value (reactive oxygen species) was “lowered”, the “aortic flow and developed pressure” value ([1]; 100 mg/kg, gavage 21 days) was “no aortic flow or developed pressure” and the “cardioprotection (aortic flow, LVDP, maximum LVdP/dt)” value ([1]; 2.5 and 25 mg/kg, gavage 21 days, 30 min ischemia, 2 h reperfusion) was “conferred cardioprotection”. The “ventricular function (aortic flow, LVDP, maximum LVdP/dt)” value ([1]; above 25 mg/kg, gavage 21 days) was “ventricular function was deteriorated”, the “hormetic action (dose-response of cardioprotection)” value ([1]; rat, doses up to 100 mg/kg) was “displayed hormetic action” and the “genes with altered expression, treatment and calorie reduced diets, number” value (brain tissue) was 10 genes. The “cardiac output function (aortic flow, coronary flow, LVDP, LVmax dp/dt)” value (IR rat heart; 2 hour reperfusion) was “improved” and the “myocardial infarct size and cardiomyocyte apoptosis” value (IR rat heart; 2 h reperfusion) was “reduce”.
